Earlier results in patent US12031126B2, “Methods and compositions for simultaneous editing of both strands of a target double-stranded nucleotide sequence” (The Broad Institute, Inc., priority 2020, dated 2024).

Columns and labels:
FKBP12 = FKBP12 (Homo sapiens, UniProt P62942); conditions: cited from earlier work
FKBP12 F36V = FKBP12 F36V (Homo sapiens, UniProt P62942, F37V); conditions: cited from earlier work
FKBP12 F36V, sequence (P62942 whole entry F37V): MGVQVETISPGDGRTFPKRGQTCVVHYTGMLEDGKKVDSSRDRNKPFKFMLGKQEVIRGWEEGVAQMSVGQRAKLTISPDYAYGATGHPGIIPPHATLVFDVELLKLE

FKBP12, sequence (P62942 whole entry): as the sequence (P62942 whole entry F37V) above, with V37F counted along it

For `CC[C@H](C(=O)N1CCCC[C@H]1C(=O)O[C@H](CCc1ccc(OC)c(OC)c1)c1cccc(OCC(=O)O)c1)c1cc(OC)c(OC)c(OC)c1` [AP1867], the Kd (FKBP12) is listed as 67 nM and the Kd (FKBP12 F36V) is listed as 0.094 nM.
